Test results from paper PMC9114382, “The K-Ras(G12D)-inhibitory peptide KS-58 suppresses growth of murine CT26 colorectal cancer cell-derived tumors” (Scientific Reports, 2022).
Numbered stars: 1 amine (or outer) side, 2 acyl side, 3 side chain; on linkers, the order of the positions; unused ones are H or OH. Bridge positions count the residues as written; N and C are the ends. Square brackets hold non-standard residues; d marks the D form. Peptide text beside a SMILES is read from it. Phe(4-F) = N[C@@H](Cc1ccc(F)cc1)C(=O)O; X1 = CCCCCCC[C@H](N[*:1])C(=O)[*:2]; Nle = CCCC[C@H](N)C(=O)O; X2 = C(C[*:1])C[*:2]; βAla = NCCC(=O)O

Assays:
[1] = Pharmacokinetics after intravenous injection; type: in vivo, mouse; conditions: 10 mg/kg i.v., LC-MS/MS
Protocol: (§1) Experimental procedures that involved animals and their care were conducted in compliance with the Guide for the Care and Use of Laboratory Animals[15] and ARRIVE guidelines[16],[17]. Animal experiments were approved by the Animal Care and Use Committee of Osaka University (approval No. DouyakuR01-3–1) and conducted at Osaka University in accordance with the guidelines. LC–MS/MS data were obtained using a Xevo TQ-S mass spectroscopy system (Waters Corp., Milford, MA, USA) connected to an ACQUITY UPLC system (Waters) equipped with a BEH C18 column (1.7 μm, 2.1 × 50 mm, Waters). Mobile phase A was 0.1% formic acid in water and mobile phase B was 0.1% formic acid in acetonitrile. The gradient elution profile was 2% B at 0 min to 98% B at 1.8 min, and the flow rate was 0.5 mL/min.
For pharmacokinetics studies, KS-58 was dissolved in saline and administered intravenously to female BALB/c mice at 10 mg/kg. Serial blood samples (20 μL) were collected from the tail vein using heparinized tips at 7.5, 15, 30, 60, 120, 240, 320, and 1440 min after KS-58 administration. Aliquots (5 μL) of plasma obtained from each blood sample were treated with 50 μL acetonitrile and the organic layer was injected onto the LC–MS/MS system. Pharmacokinetic parameters were obtained by fitting the plasma concentration–time data to a noncompartmental model using PKPlus software (Northern Science Consulting Inc, Sapporo, Japan).

[2] = Stability in human liver microsomes; type: in vitro ADME; conditions: human hepatic microsomes (XenoTech), with NADP cofactor, 37 °C, 1 h incubation, LC-MS/MS, read-out: fraction of initial concentration remaining in human liver microsomes
Protocol: as §1
(§2) For evaluation of stability, KS-58 was incubated with commercial hepatic microsomes (XenoTech Ltd, KS, USA) in X medium supplemented with nicotinamide adenine dinucleotide phosphate for 10 and 60 min at 37 °C. The fraction (%) remaining in the medium was determined using the LC–MS/MS system (Waters). We also examined the fraction (%) remaining in fresh mouse blood after 60 and 120 min of incubation at 37 °C using the same LC–MS/MS system.

[3] = Stability in mouse liver microsomes; type: in vitro ADME; conditions: mouse hepatic microsomes (XenoTech), with NADP cofactor, 37 °C, 1 h incubation, LC-MS/MS, read-out: fraction of initial concentration remaining in mouse liver microsomes
Protocol: as §1, §2

[4] = Stability in mouse whole blood; type: in vitro ADME; conditions: fresh whole blood, 37 °C, 2 h incubation, LC-MS/MS, read-out: fraction of initial concentration intact in whole blood
Protocol: as §1, §2

[5] = Translocation to blood cells; type: in vitro ADME; conditions: whole blood (Fig. 4D)
[6] = Plasma protein binding (dialysis); type: in vitro ADME; conditions: dialysis of plasma against PBS pH 7.4, 5 h, 37 °C, LC-MS/MS, human and mouse plasma (Fig. 4E)
Protocol: as §1
For evaluation of plasma protein binding, the plasma compartment containing KS-58 was dialyzed against PBS (pH 7.4) for 5 h at 37 °C and the concentrations remaining in each compartment were quantified by LC–MS/MS.

[7] = Systemic safety in CT26 tumor-bearing mice (body and organ weights, kidney and liver histomorphology); type: in vivo, mouse
Protocol: Experimental procedures that involved animals and their care were conducted in compliance with the Guide for the Care and Use of Laboratory Animals[15] and ARRIVE guidelines[16],[17]. Animal experiments were approved by Animal Care and Use Committee of UNITECH Co. Ltd. (Kashiwa, Japan) (approval No. AGR IMF-210415A-30) and conducted at UNITECH in accordance with the guidelines. To establish subcutaneous allograft tumors, 1 × 10^6 CT26 cells/100 µL were subcutaneously injected into the left groin region of BALB/cCrSlc female mice (7 weeks old; Japan SLC, Inc., Shizuoka, Japan). Immediately before treatment, KS-58 was dissolved in DMSO and then diluted tenfold in normal saline. Tumor-baring mice in vehicle control, KS-58 (low), and KS-58 (high) groups were injected intravenously with vehicle (1:10 DMSO to saline, v/v), 10 mg/kg KS-58 solution, or 40 mg/kg KS-58 solution, respectively, once every 2 days for 17 days (n = 8 mice per major group, n = 3 mice per satellite group) (Fig. 1B). For anti-PD-1 monotherapy or combination treatment, GoInVivo Purified anti-mouse PD-1 (CD279, Cat.#114114, BioLegend, San Diego, CA, USA) was dissolved in PBS and injected intraperitoneally at 50 mg/kg on days 6, 8, and 10 (n = 8 mice in major groups, n = 3 in satellite groups). Tumor growth rate was recorded on day 1, 4, 8, 11, 15, and 17 by measuring the major and minor axes with a digital caliper. Measurements were transformed into tumor volumes using the formula tumor volume (mm^3) = major axis × minor axis^2 × 0.5. Tumors (with surrounding skin), liver, and kidneys were collected from satellite groups on day 15, fixed in formalin, and then maintained in 70% ethanol for histological analyses. Tumor, liver, and kidneys were collected from major groups on day 17 within 3 h of the last injection and weighed. The tumors were subsequently frozen in liquid nitrogen and stored at − 80 °C until homogenization for Western blotting.
Tumors, livers, and kidneys were harvested from mice and fixed with 10% neutral-buffered formalin. […]

[8] = estimated using RP-HPLC; cited from earlier work
[9] = satellite groups, day 15, HE staining, n = 3

## CCCCCCC[C@@H]1NC(=O)[C@@H]2CSCCCSC[C@@H](NC(=O)[C@H](Cc3c[nH]c4ccccc34)NC(=O)[C@@H]3CCCN3C(=O)[C@H](CC(=O)O)NC(=O)[C@H](Cc3ccc(F)cc3)NC(=O)[C@H](CO)NC1=O)C(=O)NCCC(=O)N1CCC[C@H]1C(=O)N[C@@H](CCCC)C(=O)N2 [KS-58] (cyclo([βAla]P[Nle]C[X1]S[Phe(4-F)]DPW[dC]); linker 4-11 via X2)
[1]; mice
  time at which plasma concentration decreased to ~50% of the initial concentration: about 30 min
[1]; mice, limit of detection ~250 nM
  plasma concentration after 4 h: below the limit of detection
[1]; mouse, iv, female BALB/c mice, plasma, noncompartmental, mean ± SD, n = 3
  half-life: ~30 min
[2]
  remaining at 1 h: 77%
[3]
  remaining at 1 h: 46.2%
[4]
  remaining at 2 h: 92.3%
[5]
  translocation into blood cells: a substantial fraction of KS-58 was translocated into blood cells
[6]
  fraction bound to plasma proteins: more than 90%
[6]; read-out: free fraction in plasma
  fraction unbound at 5 h: < 0.1
[7]; KS-58 10 or 40 mg/kg i.v. every 2 days for 17 days, n = 8
  body weight gain/loss and weights of liver and kidney vs vehicle controls: neither body weight gain/loss (Fig. 2B) nor the weights of liver and kidney (Fig. 2C) were significantly altered
[7]; [9]
  kidney histomorphology: No obvious histological changes in any of the nephron segments
  liver histomorphology: hepatocellular hypertrophy with cytoplasmic eosinophilic change
[8]
  half-life in whole blood: ~ 60 min
